Measured values from ChEMBL document CHEMBL5528056, “BAY-9835: Discovery of the First Orally Bioavailable ADAMTS7 Inhibitor” (J Med Chem, 2024).

Legend:
[1] = Selectivity ratio of IC50 for ADAMTS5 (unknown origin) to IC50 for ADAMTS7 (unknown origin)
[2] = Selectivity ratio of IC50 for MMP2 (unknown origin) to IC50 for ADAMTS7 (unknown origin)
[3] = Selectivity ratio of IC50 for MMP15 (unknown origin) to IC50 for ADAMTS7 (unknown origin)
[4] = Clearance in iv-dosed Wistar rat measured after 24 hrs by HPLC-MS/MS analysis; format: ADME; conditions: in vivo
[5] = Stability in aqueous solution at pH 1 to 7 measured after 24 hrs by HPLC analysis; format: physicochemical; conditions: buffer, pH 1, 24 h
[6] = Stability in human plasma measured for 4 hrs by HPLC analysis; format: ADME, cell-free
[7] = Fraction unbound in rat plasma; format: ADME, cell-free
Cytochrome P450 2C8 = molecular target: T1, Cytochrome P450 2C8 (Homo sapiens, UniProt P10632); experiment: Inhibition of CYP2C8 in human liver microsomes using amodiaquin as substrate upto 20 uM by LC-MS/MS analysis; format: ADME, Microsome
T1 sequence (P10632 whole entry): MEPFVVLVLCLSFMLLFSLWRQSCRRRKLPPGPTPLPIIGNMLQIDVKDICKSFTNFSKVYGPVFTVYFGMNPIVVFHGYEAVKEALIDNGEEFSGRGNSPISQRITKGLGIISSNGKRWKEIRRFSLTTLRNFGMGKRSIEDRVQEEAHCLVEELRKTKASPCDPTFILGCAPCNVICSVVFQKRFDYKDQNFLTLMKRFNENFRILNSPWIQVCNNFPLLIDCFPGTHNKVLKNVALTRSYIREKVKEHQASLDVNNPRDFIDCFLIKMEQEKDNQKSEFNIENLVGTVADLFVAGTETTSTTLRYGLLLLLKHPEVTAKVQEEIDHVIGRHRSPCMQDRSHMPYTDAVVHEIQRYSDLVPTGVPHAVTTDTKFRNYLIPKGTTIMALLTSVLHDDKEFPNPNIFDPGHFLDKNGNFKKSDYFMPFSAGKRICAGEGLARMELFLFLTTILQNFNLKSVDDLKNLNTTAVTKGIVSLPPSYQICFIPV

Cytochrome P450 3A4 [8] = molecular target: T2, Cytochrome P450 3A4 (Homo sapiens, UniProt P08684); experiment: Inhibition of CYP3A4 in human liver microsomes using midazolam as substrate upto 20 uM by LC-MS/MS analysis; format: ADME, Microsome
Cytochrome P450 3A4 [9] = molecular target: T2, Cytochrome P450 3A4; experiment: Induction of CYP3A4 in human hepatocytes upto 61 uM incubated for 48 hrs by qPCR analysis; format: ADME, cell-based, Hepatocyte
[10] = Genotoxicity in Salmonella typhimurium by Ames […] test; format: toxicity; conditions: salmonella enterica subsp. enterica serovar typhimurium
[11] = molecular target: Voltage-gated inwardly rectifying potassium channel KCNH2 (Homo sapiens, UniProt Q12809); experiment: Inhibition of hERG upto 10 uM by whole-cell voltage clamp method; format: toxicity
[12] = molecular target: Voltage-dependent L-type calcium channel subunit alpha-1C (Homo sapiens, UniProt Q13936); experiment: Inhibition of hCaV1.2 upto 10 uM by voltage clamp method; format: toxicity
[13] = Selectivity ratio of IC50 for C-terminal 10His-tagged recombinant human ADAM10 (214 to 672 residues) expressed in baculovirus infected Sf21 cells using Dabcyl-SSNQLQRR-Glu(EDANS)-NH2 as substrate to IC50 for ADAMTS7 (unknown origin)
[14] = Selectivity ratio of IC50 for C-terminal 10His-tagged recombinant human MMP-14 (21 to 284 residues) expressed in Escherichia coli using McaKPLGL-Dpa-AR-NH2 as substrate to IC50 for ADAMTS7 (unknown origin)
[15] = Lipophilicity, logD of compound at pH 7.5; format: physicochemical; conditions: buffer
[16] = Clearance in C57bl6 mouse at 0.3 mg/kg, iv measured for >24 hrs by HPLC-MS/MS analysis; format: ADME, organism-based; conditions: in vivo
[17] = Volume of distribution at steady state in C57bl6 mouse at 0.3 mg/kg, iv measured for >24 hrs by HPLC-MS/MS analysis; format: ADME, organism-based; conditions: in vivo
[18] = Dose normalized AUC in C57bl6 mouse at 1 mg/kg, po measured for >24 hrs by HPLC-MS/MS analysis; format: ADME, organism-based; conditions: in vivo
[19] = Half life in C57bl6 mouse at 1 mg/kg, po measured for >24 hrs by HPLC-MS/MS analysis; format: ADME, organism-based; conditions: in vivo
[20] = Dose normalized AUC in Wistar rat at 1 mg/kg, po measured for >24 hrs by HPLC-MS/MS analysis; format: ADME, organism-based; conditions: in vivo
[21] = Half life in Wistar rat at 1 mg/kg, po measured for >24 hrs by HPLC-MS/MS analysis; format: ADME, organism-based; conditions: in vivo
[22] = Oral bioavailability in Wistar rat at 1 mg/kg measured for >24 hrs by HPLC-MS/MS analysis; format: ADME, organism-based; conditions: in vivo
[23] = Dose normalized AUC in Beagle dog at 1 mg/kg, po measured for >24 hrs by HPLC-MS/MS analysis; format: ADME, organism-based, Canis lupus familiaris; conditions: in vivo
[24] = Oral bioavailability in Beagle dog at 1 mg/kg measured for >24 hrs by HPLC-MS/MS analysis; format: ADME, organism-based, Canis lupus familiaris; conditions: in vivo

T2 sequence (P08684 whole entry): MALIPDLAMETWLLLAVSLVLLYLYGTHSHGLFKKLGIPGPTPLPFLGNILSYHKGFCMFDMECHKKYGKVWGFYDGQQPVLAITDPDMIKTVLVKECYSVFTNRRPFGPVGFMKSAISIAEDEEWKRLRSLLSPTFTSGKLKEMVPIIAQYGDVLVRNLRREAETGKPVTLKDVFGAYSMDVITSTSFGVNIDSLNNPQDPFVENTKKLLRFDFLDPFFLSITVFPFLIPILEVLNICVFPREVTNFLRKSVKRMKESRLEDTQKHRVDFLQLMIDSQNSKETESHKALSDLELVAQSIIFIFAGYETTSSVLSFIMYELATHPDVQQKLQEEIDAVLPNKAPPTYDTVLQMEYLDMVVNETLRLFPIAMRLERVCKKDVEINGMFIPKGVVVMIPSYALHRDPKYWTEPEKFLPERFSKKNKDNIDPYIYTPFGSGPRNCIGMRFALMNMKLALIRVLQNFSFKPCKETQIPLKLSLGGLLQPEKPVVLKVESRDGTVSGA
Sequence of Voltage-dependent L-type calcium channel subunit alpha-1C (Q13936 whole entry, the tested form may be a part): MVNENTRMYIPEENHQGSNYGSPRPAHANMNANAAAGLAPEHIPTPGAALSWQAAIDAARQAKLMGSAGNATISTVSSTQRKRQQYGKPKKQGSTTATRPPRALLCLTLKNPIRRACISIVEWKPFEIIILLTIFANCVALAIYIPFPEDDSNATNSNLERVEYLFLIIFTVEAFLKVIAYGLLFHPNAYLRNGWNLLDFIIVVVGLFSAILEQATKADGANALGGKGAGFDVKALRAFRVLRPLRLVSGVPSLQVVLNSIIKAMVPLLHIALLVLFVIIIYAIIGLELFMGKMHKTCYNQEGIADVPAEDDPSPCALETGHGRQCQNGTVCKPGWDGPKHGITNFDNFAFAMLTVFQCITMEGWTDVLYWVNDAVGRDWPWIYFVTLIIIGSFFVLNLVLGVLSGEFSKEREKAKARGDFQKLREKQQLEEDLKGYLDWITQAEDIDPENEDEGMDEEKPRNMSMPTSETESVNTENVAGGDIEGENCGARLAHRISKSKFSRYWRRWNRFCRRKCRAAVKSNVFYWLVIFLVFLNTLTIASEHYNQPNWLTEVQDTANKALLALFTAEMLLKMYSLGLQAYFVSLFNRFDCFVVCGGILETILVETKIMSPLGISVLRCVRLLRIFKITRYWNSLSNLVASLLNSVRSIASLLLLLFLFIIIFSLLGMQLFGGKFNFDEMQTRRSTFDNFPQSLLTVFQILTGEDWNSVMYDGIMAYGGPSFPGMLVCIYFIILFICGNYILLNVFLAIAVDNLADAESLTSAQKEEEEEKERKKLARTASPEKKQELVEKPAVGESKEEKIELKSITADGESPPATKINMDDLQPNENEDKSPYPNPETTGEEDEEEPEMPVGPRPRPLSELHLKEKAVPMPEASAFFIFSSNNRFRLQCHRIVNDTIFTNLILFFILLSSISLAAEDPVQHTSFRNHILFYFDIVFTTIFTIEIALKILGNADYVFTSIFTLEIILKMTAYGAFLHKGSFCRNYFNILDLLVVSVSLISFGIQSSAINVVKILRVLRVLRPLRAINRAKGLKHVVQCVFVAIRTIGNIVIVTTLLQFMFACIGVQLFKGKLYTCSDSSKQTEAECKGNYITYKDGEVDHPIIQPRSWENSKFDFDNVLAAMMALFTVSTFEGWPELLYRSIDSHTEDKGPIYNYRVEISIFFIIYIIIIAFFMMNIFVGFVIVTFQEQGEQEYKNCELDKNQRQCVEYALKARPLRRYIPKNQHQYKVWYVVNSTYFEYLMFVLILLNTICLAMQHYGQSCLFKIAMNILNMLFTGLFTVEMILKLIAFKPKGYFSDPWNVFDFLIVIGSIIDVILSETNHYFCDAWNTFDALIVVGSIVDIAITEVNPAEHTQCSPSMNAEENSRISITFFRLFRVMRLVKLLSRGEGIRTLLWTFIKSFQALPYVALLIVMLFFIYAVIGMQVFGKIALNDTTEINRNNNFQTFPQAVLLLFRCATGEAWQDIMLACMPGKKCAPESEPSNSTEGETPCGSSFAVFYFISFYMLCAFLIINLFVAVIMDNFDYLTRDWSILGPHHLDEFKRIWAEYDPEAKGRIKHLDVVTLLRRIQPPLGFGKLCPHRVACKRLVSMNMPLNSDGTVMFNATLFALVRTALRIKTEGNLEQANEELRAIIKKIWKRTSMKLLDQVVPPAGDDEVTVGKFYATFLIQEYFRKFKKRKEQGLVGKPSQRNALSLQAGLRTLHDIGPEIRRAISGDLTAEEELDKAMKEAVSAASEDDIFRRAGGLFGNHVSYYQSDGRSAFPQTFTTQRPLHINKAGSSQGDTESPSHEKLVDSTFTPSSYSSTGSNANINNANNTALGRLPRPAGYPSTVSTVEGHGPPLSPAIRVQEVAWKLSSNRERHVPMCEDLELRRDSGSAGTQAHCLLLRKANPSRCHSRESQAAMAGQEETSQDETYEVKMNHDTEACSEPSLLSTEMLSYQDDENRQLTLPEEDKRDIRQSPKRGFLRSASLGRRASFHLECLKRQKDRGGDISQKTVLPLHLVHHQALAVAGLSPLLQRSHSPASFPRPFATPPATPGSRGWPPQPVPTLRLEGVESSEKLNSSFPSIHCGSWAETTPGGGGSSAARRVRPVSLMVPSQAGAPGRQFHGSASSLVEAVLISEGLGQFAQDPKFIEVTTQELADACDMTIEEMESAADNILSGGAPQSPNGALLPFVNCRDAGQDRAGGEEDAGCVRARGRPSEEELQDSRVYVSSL
Sequence of Voltage-gated inwardly rectifying potassium channel KCNH2 (Q12809 whole entry): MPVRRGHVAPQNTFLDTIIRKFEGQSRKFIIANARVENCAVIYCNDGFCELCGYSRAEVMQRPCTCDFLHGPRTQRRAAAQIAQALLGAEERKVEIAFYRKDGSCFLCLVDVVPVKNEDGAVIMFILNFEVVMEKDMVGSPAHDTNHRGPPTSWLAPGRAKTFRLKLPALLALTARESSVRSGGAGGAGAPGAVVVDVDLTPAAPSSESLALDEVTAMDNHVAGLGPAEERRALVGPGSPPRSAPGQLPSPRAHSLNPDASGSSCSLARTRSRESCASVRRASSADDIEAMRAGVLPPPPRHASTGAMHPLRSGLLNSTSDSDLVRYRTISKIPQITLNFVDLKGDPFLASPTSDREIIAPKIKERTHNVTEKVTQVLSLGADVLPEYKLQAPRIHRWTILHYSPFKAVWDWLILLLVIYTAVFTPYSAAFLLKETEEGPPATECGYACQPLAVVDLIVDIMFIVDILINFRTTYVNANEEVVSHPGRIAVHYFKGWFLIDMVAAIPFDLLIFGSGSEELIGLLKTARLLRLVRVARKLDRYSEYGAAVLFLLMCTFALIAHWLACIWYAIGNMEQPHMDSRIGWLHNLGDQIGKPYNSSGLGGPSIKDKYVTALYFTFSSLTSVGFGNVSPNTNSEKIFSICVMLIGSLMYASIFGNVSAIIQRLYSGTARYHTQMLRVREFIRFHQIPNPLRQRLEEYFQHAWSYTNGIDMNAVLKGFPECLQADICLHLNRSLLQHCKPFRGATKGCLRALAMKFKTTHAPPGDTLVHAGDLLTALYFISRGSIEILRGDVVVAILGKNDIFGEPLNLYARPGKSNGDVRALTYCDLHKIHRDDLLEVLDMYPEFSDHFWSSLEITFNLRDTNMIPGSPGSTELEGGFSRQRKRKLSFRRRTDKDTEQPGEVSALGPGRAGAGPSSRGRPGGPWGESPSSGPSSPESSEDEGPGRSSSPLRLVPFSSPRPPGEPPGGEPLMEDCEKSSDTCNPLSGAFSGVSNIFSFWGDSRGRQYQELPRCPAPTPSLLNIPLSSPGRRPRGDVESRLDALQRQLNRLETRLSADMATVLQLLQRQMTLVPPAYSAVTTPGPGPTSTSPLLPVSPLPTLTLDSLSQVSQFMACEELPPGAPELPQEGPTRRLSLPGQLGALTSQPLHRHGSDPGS

Cn1nccc1[C@]1(CNC(=O)c2ccc(F)c(F)c2-c2ccc(C(F)(F)F)cc2)NC(=O)NC1=O
Ratio IC50 [1]: 1650
Ratio IC50 [2]: 17300
Ratio IC50 [3]: 13100
CL [4]: 10 mL/min/kg
Stability [5]: Stable
Stability [6]: Stable
Fu [7]: 5%
inhibition (INH) (Cytochrome P450 2C8): Not Active
inhibition (INH) (Cytochrome P450 3A4 [8]): Not Active
Activity (Cytochrome P450 3A4 [9]): Not Active
Activity [10]: Non-Toxic
inhibition (INH) [11]: Not Active
inhibition (INH) [12]: Not Active
Ratio IC50 [13]: 5470
Ratio IC50 [14]: > 16700
logD [15]: 3.2
CL [16]: 18.3 mL/min/kg
Vdss [17]: 1.6 L/kg
AUC/dose [18]: 2 kg·h/L
t1/2 [19]: 2.5 h
AUC/dose [20]: 3 kg·h/L
t1/2 [21]: 3.7 h
F [22]: 96%
AUC/dose [23]: 68 kg·h/L
F [24]: 77%
